{"source": "patent US20100323979A1", "about": "“METHODS AND COMPOSITIONS FOR INHIBITING PROLIFERATION OF ANEUPLOID CELLS” (priority 2009, published 2010)", "key": {"[1]": {"system": "trisomic primary MEF cells", "experiment": "Cell proliferation assay, trisomic MEFs", "format": "cell-based, mouse", "details": "for sensitivity in relation to size of the additional chromosome: trisomy 1 versus trisomy 16 or 19", "description": "MEF cells were cultured in DMEM supplemented with 10% FBS, 2 mM glutamine, 50 U/ml penicillin, and 50 U/ml streptomycin. […] Lymphoma cells were cultured in IMDM supplemented with 10% FBS, 2 mM glutamine, 50U/ml penicillin, 50 U/ml streptomycin and […] beta-mercaptoethanol. All cells were cultured at 37° C. with 5% CO2 in a humidified environment. In all experiments, cells were counted using a Cellometer Auto T4 automated hemacytometer (Nexcelom). […] After infection with shRNA constructs, GFP+FACS sorted cells were plated at a density of 5×10^5 cells/well in 6-well plates. Cells were treated with AICAR at various concentrations or solvent control then counted at indicated time point."}, "[2]": {"system": "Eμ-Myc;p53−/− lymphoma cells", "experiment": "Cell proliferation assay, aneuploid lymphoma cells", "format": "cell-based", "description": "(§1) All euploid (WT) and aneuploid (Ts) mouse embryonic fibroblast (MEF) lines were established as previously described (Williams, B. R. et al., 2008). MEF cells were cultured in DMEM supplemented with 10% FBS, 2 mM glutamine, 50 U/ml penicillin, and 50 U/ml streptomycin. Eμ-Myc;Arf−/− and Eμ-Myc;p53−/− lymphoma cells were established as previously described (Wendel, H. et al., 2006). Lymphoma cells were cultured in IMDM supplemented with 10% FBS, 2 mM glutamine, 50U/ml penicillin, 50 U/ml streptomycin and […] beta-mercaptoethanol. All cells were cultured at 37° C. with 5% CO2 in a humidified environment. In all experiments, cells were counted using a Cellometer Auto T4 automated hemacytometer (Nexcelom).\nAMPK-specific shRNA constructs were generated as described previously (Silva, J. M. et al., 2005). Targeting sequences were selected based on BIOPREDsi design (Huesken, D, et al., 2005).\n(§2) Exponentially growing early passage MEFs were plated at a density of 2×10^5 cells/well in 6-well plates and lymphoma cells were cultured and infected as described previously (Hemann, M. T. et al., 2003). After infection with shRNA constructs, GFP+FACS sorted cells were plated at a density of 5×10^5 cells/well in 6-well plates. Cells were treated with AICAR at various concentrations or solvent control then counted at indicated time point."}, "[3]": {"system": "Eμ-Myc;Arf−/− lymphoma cells", "experiment": "Cell proliferation assay, euploid lymphoma cells", "format": "cell-based", "details": "various concentrations, 24 h, FIG. 2A", "description": "as §1, §2"}, "[4]": {"system": "autophagy (LC3, BNIP3) in trisomy 13 and 16 MEFs", "experiment": "Autophagy markers in trisomic MEFs (LC3 immunoblot, RT-qPCR, GFP-LC3 puncta)", "format": "cell-based, mouse", "description": "(§3) Western blotting was performed as previously described (Dickins, R. A. et al., 2005). Proteins were detected by using the following antibodies: anti-AMPKα (Cell signaling technology), anti-Hsp70 (Stressgen), and anti-β actin (Sigma). Secondary antibodies were horseradish peroxidase-conjugated anti-mouse or anti-rabbit IgG (GE Healthcare; 1:5,000).\nFor GFP-LC3 fluorescence imaging, wild-type GFP-LC3 and trisomic GFP-LC3 MEF cells were exposed to the indicated drug treatments in phenol red-free DMEM. All fluorescence images were acquired using a Nikon digital sight DS-Qil MC camera on a Nikon Eclipse Ti inverted microscope. All single plane images were acquired and processed using the NIS-Element AR 3.0 software.\nTotal RNA from MEFs was isolated using the RNeasy Mini Kit (Qiagen) according to the manufacturer's instructions. 1μg RNA was used to generate cDNAs using RETROscript kit (Ambion). qPCR was performed by mixing iQ SYBR Green Supermix (Bio-Rad) with the primers described in Table S2, and amplified using a LightCycler 480 II (Roche). The LightCycler software was used to evaluate gene expression level and normalized to a ribosomal reference gene, rpl19."}, "[5]": {"system": "inducible Hsp70 in trisomic MEFs", "experiment": "Inducible Hsp70 levels by immunoblotting in trisomic MEFs", "format": "cell-based, mouse", "details": "indicated doses, FIG. 4D", "description": "as §3"}}, "data": [{"smiles": "C=CCNC1=C2C[C@@H](C)C[C@H](OC)[C@H](O)[C@@H](C)/C=C(\\C)[C@H](OC(N)=O)[C@@H](OC)/C=C\\C=C(/C)C(=O)NC(=CC1=O)C2=O", "note": "[17-AAG, 17-(Allylamino)-17-demethoxygeldanamycin]", "values": [{"measurement": "proliferation of trisomy 1, 13, 16 and 19 cells", "setting": "[1]; 100 nM, cell number after 3 days, FIG. 3A", "value": "impaired"}, {"measurement": "proliferation of trisomic/aneuploid cells versus wild-type (cell number)", "setting": "[1]; single agent, cell number after 3 days, FIG. 3A/3B", "value": "preferentially inhibited"}, {"measurement": "sensitivity in relation to size of the additional chromosome", "setting": "[1]; FIG. 3A/3B", "value": "higher sensitivity"}]}, {"smiles": "NC(=O)c1ncn([C@@H]2O[C@H](CO)[C@@H](O)[C@H]2O)c1N", "note": "[AICAR, 5-aminoimidazole-4-carboxamide riboside]", "values": [{"measurement": "sensitivity of MEFs carrying trisomies (cell count relative to non-treated control)", "setting": "[1]; trisomic for chromosome 1, 13, 16 or 19, 0-0.5 mM, 72 or 144 h, FIG. 1", "value": "sensitive"}, {"measurement": "proliferation after knock-down of AMPK", "setting": "[2]; Eμ-Myc;p53−/− infected with AMPK-specific shRNA, FIG. 2B", "value": "proliferate the same in the presence and absence of AICAR"}, {"measurement": "sensitivity of aneuploid B cells (cell count relative to control)", "setting": "[2]; Eμ-Myc;p53−/−, various concentrations, 24 h, FIG. 2A", "value": "sensitive"}, {"measurement": "sensitivity of euploid immortalized B-cells (cell count relative to control)", "setting": "[3]", "value": "not sensitive"}, {"measurement": "LC3 incorporation into autophagosomes", "setting": "[4]; 24 hours after treatment, LC3-GFP puncta, FIG. 4A-4C", "value": "further induced"}, {"measurement": "LC3 expression", "setting": "[4]; FIG. 4A-4B", "value": "further induced"}, {"measurement": "Bnip3 expression", "setting": "[4]; RT-qPCR normalized to rpl19, FIG. 4B", "value": "further induced"}, {"measurement": "Hsp70 activity (levels of inducible Hsp70)", "setting": "[5]", "value": "further increase"}]}, {"smiles": "CCN(CC)CCCC(C)Nc1ccnc2cc(Cl)ccc12", "note": "(stereo not drawn) [chloroquine]", "values": [{"measurement": "sensitivity in relation to size of the additional chromosome", "setting": "[1]; FIG. 3A/3B", "value": "correlated with the size of the additional chromosome"}]}]}
